In general, EC50 refers to the concentration that produces a half-maximal response.

In one test the test system is infected PBMCs (VSV-G pseudotyped HIV virus VSV-G/pNLG1-P2A-ΔEnv). Nature of the test: cells. Type of test: cell-based, human. Particulars: Homo sapiens, PBMC, read-out: TACK EC50.
As to `Cc1nc(C)c(Cn2cnc(C(F)(F)C(F)(F)F)c(Oc3cccc(C#N)c3F)c2=O)c(=O)[nH]1` [Example 85, 3-((1-((2,4-dimethyl-6-oxo-1,6-dihydropyrimidin-5-yl)methyl)-6-oxo-4-(perfluoroethyl)-1,6-dihydropyrimidin-5-yl)oxy)-2-fluorobenzonitrile], the EC50 turned out to be 441 nM. With `Cc1nc(C)c(Cn2cnc(C(F)(F)C(F)(F)F)c(Oc3cc(Br)cc(C#N)c3)c2=O)c(=O)[nH]1` [Example 86, 3-bromo-5-((1-((2,4-dimethyl-6-oxo-1,6-dihydropyrimidin-5-yl)methyl)-6-oxo-4-(perfluoroethyl)-1,6-dihydro-pyrimidin-5-yl)oxy)benzonitrile], the EC50 worked out at 473 nM. For the molecule `Cc1nc(C)c(Cn2cnc(C(F)(F)C(F)(F)F)c(Oc3cc(Cl)cc(C#N)c3F)c2=O)c(=O)[nH]1` [Example 87, 5-chloro-3-((1-((2,4-dimethyl-6-oxo-1,6-dihydropyrimidin-5-yl)methyl)-6-oxo-4-(perfluoroethyl)-1,6-dihydropyrimidin-5-yl)oxy)-2-fluorobenzonitrile], the EC50 is 218 nM.

`Cc1cc(C#N)cc(Oc2c(C(F)(F)C(F)(F)F)ncn(Cc3c(C)nc(C)[nH]c3=O)c2=O)c1` [Example 88]: the EC50 turned out to be 397 nM. Turning to `Cc1nc(C)c(Cn2cnc(C(F)(F)F)c(Oc3cc(Br)cc(C#N)c3Cl)c2=O)c(=O)[nH]1` [Example 89, 5-bromo-2-chloro-3-((1-((2,4-dimethyl-6-oxo-1,6-dihydro-pyrimidin-5-yl)methyl)-6-oxo-4-(trifluoromethyl)-1,6-dihydropyrimidin-5-yl)oxy) benzonitrile], the EC50 stood at 434 nM.

As for `Cc1nc(C)c(Cn2cnc(C(F)(F)F)c(Oc3cc(Cl)cc(C#N)c3Cl)c2=O)c(=O)[nH]1` [Example 90, 2,5-dichloro-3-((1-((2,4-dimethyl-6-oxo-1,6-dihydropyrimidin-5-yl)methyl)-6-oxo-4-(trifluoromethyl)-1,6-dihydropyrimidin-5-yl)oxy) benzonitrile], the EC50 came out at 489 nM. As to `Cc1nc(C)c(Cn2cnc(C(F)(F)F)c(Oc3cc(Cl)cc(C#N)c3F)c2=O)c(=O)[nH]1` [Example 92, 5-chloro-3-((1-((2,4-dimethyl-6-oxo-1,6-dihydropyrimidin-5-yl)methyl)-6-oxo-4-(trifluoromethyl)-1,6-dihydropyrimidin-5-yl)oxy)-2-fluorobenzonitrile], the EC50 turned out to be 284 nM. On the same count and under the same terms, with `Cc1cc(C#N)c(F)c(Oc2c(C(F)(F)C(F)(F)F)ncn(Cc3c(C)nc(C)[nH]c3=O)c2=O)c1` [Example 93, 3-((1-((2,4-dimethyl-6-oxo-1,6-dihydropyrimidin-5-yl)methyl)-6-oxo-4-(perfluoroethyl)-1,6-dihydropyrimidin-5-yl)oxy)-2-fluoro-5-methylbenzonitrile] the figure was 172 nM; with `Cc1nc(C)c(Cn2cnc(C(F)(F)C(F)F)c(Oc3cc(C(F)(F)F)cc(C#N)c3Cl)c2=O)c(=O)[nH]1` [Example 94, 2-chloro-3-((1-((2,4-dimethyl-6-oxo-1,6-dihydropyrimidin-5-yl)methyl)-6-oxo-4-(1,1,2,2-tetrafluoroethyl)-1,6-dihydropyrimidin-5-yl)oxy)-5-(trifluoromethyl)benzonitrile], 492 nM.

For the molecule `Cc1nc(C)c(Cn2cnc(C(F)(F)C(F)(F)F)c(Oc3c(C)cc(C#N)cc3Cl)c2=O)c(=O)[nH]1` [Example 95, 3-chloro-4-((1-((2,4-dimethyl-6-oxo-1,6-dihydropyrimidin-5-yl)methyl)-6-oxo-4-(perfluoroethyl)-1,6-dihydropyrimidin-5-yl)oxy)-5-methylbenzonitrile], the EC50 was found to be 179 nM. Regarding `Cc1nc(C)c(Cn2cnc(C(F)(F)C(F)(F)F)c(Oc3c(Cl)cc(C#N)cc3Cl)c2=O)c(=O)[nH]1` [Example 96, 3,5-dichloro-4-((1-((2,4-dimethyl-6-oxo-1,6-dihydropyrimidin-5-yl)methyl)-6-oxo-4-(perfluoroethyl)-1,6-dihydropyrimidin-5-yl)oxy)benzonitrile], the EC50 was found to be 367 nM. Still for that read-out and setting: with `Cc1nc(C)c(Cn2cnc(C(F)(F)C(F)F)c(Oc3c(Cl)cc(C#N)cc3Cl)c2=O)c(=O)[nH]1` [Example 97, 3,5-dichloro-4-((1-((2,4-dimethyl-6-oxo-1,6-dihydropyrimidin-5-yl)methyl)-6-oxo-4-(1,1,2,2-tetrafluoroethyl)-1,6-dihydropyrimidin-5-yl)oxy)benzonitrile] the figure was 182 nM; with `Cc1nc(C)c(Cn2cnc(C(F)(F)C(F)F)c(Oc3c(C)cc(C#N)cc3Cl)c2=O)c(=O)[nH]1` [Example 98, 3-chloro-4-((1-((2,4-dimethyl-6-oxo-1,6-dihydropyrimidin-5-yl)methyl)-6-oxo-4-(1,1,2,2-tetrafluoroethyl)-1,6-dihydropyrimidin-5-yl)oxy)-5-methylbenzonitrile], 183 nM.

The test is the same for the next values; noted with them: read-out: TACK EC50.
For “(S) or (R)-3,5-dichloro-4-((1-((2,4- dimethyl-6-oxo-1,6-dihydropyrimidin- 5-y1)methyl)-4-(1-fluoroethyl)-6-oxo- 1,6-dihydropyrimidin-5-yl)oxy) benzonitrile [Example 17]”, the EC50 turned out to be 282 nM.

Source of the values: patent publication US12258329B2 (Merck Sharp & Dohme LLC, priority 2018, dated 2025).
